Test results reported in patent publication US20100028325A1, “New Combination Of Cationic Preservatives With Taste-Masking Components” (LABORATORIOS MIRET, S.A., priority 2007, published 2010).

Experiments:
Assay type in all cases: in vivo, human
panel of 10 persons [1] = test: Taste masking effect on MDLA (200 ppm) in carbonated juice drink; details: scale 1-no taste to 7-unbearable taste
Experimental: The evaluation of the taste was based on the article titled “Reduction of saltiness and bitterness after a chlorhexidine rinse”, Chem. Senses 26: 105-116 (2001). […] The organoleptic studies were performed with a panel of 10 persons who were trained in experiments involving the tasting of bitter constituents. The panel was asked to compare samples containing a cationic surfactant alone or combined with one or more masking agent. The members of the panel were asked to indicate which sample was less bitter, thereby taking into account the scale of values defined as given above.

panel of 10 persons [2] = test: Organoleptic taste evaluation of LAE (200 ppm) with masking agents in carbonated juice drink; details: scale 1-no taste to 7-unbearable taste
Experimental: The combination of the test compound neohespiridin (NHDC) with LAE was investigated in a carbonated oral juice drink (a base sugar syrup with concentrated organic juice, manufactured by […] control solution of 200 ppm LAE in the juice drink was prepared. The test samples were prepared by direct dissolution of the test compound in the control solution. The test samples were compared with the control solution and with an untreated (blank) juice drink. The evaluation of the taste was based on the article titled “Reduction of saltiness and bitterness after a chlorhexidine rinse”, Chem. Senses 26: 105-116 (2001). […] The organoleptic studies were performed with a panel of 10 persons who were trained in experiments involving the tasting of bitter constituents. The panel was asked to compare samples containing a cationic surfactant alone or combined with one or more masking agent. The members of the panel were asked to indicate which sample was less bitter, thereby taking into account the scale of values defined as given above. The combination of LAE with only one masking agent, NAF®, was compared with a combination of several masking agents (one of these being NAF®) in carbonated orange juice drinks. The manner of determination of the organoleptic results is the same as described in example 1. The results are reported in the following table 3 where a solution A is compared with a solution B. Composition of solutions (all containing 200 ppm LAE): […] Different types of NAF® are investigated ([…] lemon, NAF® C Orange, etc., all produced by Ogawa). The carbonated orange juice drink is produced by Hausmann S.A.

panel of 10 persons [3] = test: Determination of the taste masking in toothpaste containing MDLA (7,500 ppm); details: product 3,330 ppm + 7,500 ppm MDLA in toothpaste; scale 1-no taste to 7-unbearable taste
Experimental: The evaluation of the taste was based on the article titled “Reduction of saltiness and bitterness after a chlorhexidine rinse”, Chem. Senses 26: 105-116 (2001). […] The organoleptic studies were performed with a panel of 10 persons who were trained in experiments involving the tasting of bitter constituents. The panel was asked to compare samples containing a cationic surfactant alone or combined with one or more masking agent. The members of the panel were asked to indicate which sample was less bitter, thereby taking into account the scale of values defined as given above. Determination of the taste masking in toothpaste. The toothpaste used was produced in the manner described in example 11.

consumer = test: Organoleptic experiments (beverages, toothpaste, food matrix, cosmetic preparation); details: for neutralisation of the bitter taste of the cationic surfactant: high doses, combined with a cationic surfactant of formula (1), numerous experiments
panel of 10 persons [4] = test: Determination of the taste in toothpaste containing LAE (7,500 ppm); details: scale 1-no taste to 7-unbearable taste
Experimental: The evaluation of the taste was based on the article titled “Reduction of saltiness and bitterness after a chlorhexidine rinse”, Chem. Senses 26: 105-116 (2001). […] The organoleptic studies were performed with a panel of 10 persons who were trained in experiments involving the tasting of bitter constituents. The panel was asked to compare samples containing a cationic surfactant alone or combined with one or more masking agent. The members of the panel were asked to indicate which sample was less bitter, thereby taking into account the scale of values defined as given above. Determination of the taste in toothpaste. The toothpaste used is a standard opaque […] prepared by the addition of (in g): [table] […] A control sample contained LAE in a concentration of 7,500 ppm. The same concentration of LAE was present in all further investigated samples. […] The sweetening agents sorbitol and lactilol were investigated in the same test as described in example 11. The samples were prepared in similar manner, the concentration of LAE was 7,500 ppm.

[5] = test compound 10,000 ppm + 200 ppm MDLA in juice drink
[6] = test compound 1,000 ppm + 200 ppm LAE in juice drink
[7] = test compound 10,000 ppm + 200 ppm LAE in juice drink
[8] = test compound 500 ppm + 200 ppm LAE in juice drink
[9] = sweetening agent 200,000 ppm + 7,500 ppm LAE in toothpaste
[10] = test compound 1,000 ppm + 200 ppm MDLA in juice drink
[11] = test compound 60,000 ppm + 200 ppm LAE in juice drink

Question: How did the Organoleptic results (panel of 10 persons [1]; [5]) turn out when `CC(=O)[O-].[Na+]` [sodium acetate] was run?
Answer: Its Organoleptic results is 2.8.

Question: And the Organoleptic results (panel of 10 persons [2]; [6])?
Answer: Its Organoleptic results is 2.8.

Question: What about the Organoleptic results (panel of 10 persons [2]; [7]) of the same molecule?
Answer: Its Organoleptic results is 2.3.

Question: For lysozyme, which Organoleptic results (panel of 10 persons [1]; test compound 2,500 ppm + 200 ppm MDLA in juice drink) is on record?
Answer: Its Organoleptic results is 2.7.

Question: What about the Organoleptic results (panel of 10 persons [2]; [8]) of the same molecule?
Answer: Its Organoleptic results is 2.5.

Question: And the Organoleptic results (panel of 10 persons [2]; test compound 2,500 ppm + 200 ppm LAE in juice drink)?
Answer: Its Organoleptic results is 2.

Question: Which Organoleptic results (panel of 10 persons [1]; test compound 3,320 ppm + 200 ppm MDLA in juice drink) does the source give for `CCCCCCCCCCCCOS(=O)(=O)[O-].[Na+]` [SDS, sodium dodecyl sulfate] here?
Answer: Its Organoleptic results is 2.6.

Question: And the Organoleptic result (panel of 10 persons [3])?
Answer: The Organoleptic result was 2.9.

Question: What about the Organoleptic results (panel of 10 persons [2]; test compound 1,330 ppm + 200 ppm LAE in juice drink) of the same molecule?
Answer: The Organoleptic results was 2.9.

Question: What about the Organoleptic results (panel of 10 persons [2]; test compound 1,960 ppm + 200 ppm LAE in juice drink) of the same molecule?
Answer: The Organoleptic results was 2.3.

Question: And the Organoleptic results (panel of 10 persons [2]; test compound 3,320 ppm + 200 ppm LAE in juice drink)?
Answer: Its Organoleptic results is 1.6.

Question: What about the “taste of the toothpaste” value (consumer; cationic surfactant of formula (1) combined only with SDS, cosmetic preparation) of the same molecule?
Answer: Its value is “smooth taste”.

Question: And the Organoleptic result (panel of 10 persons [4]; product 1,960 ppm + 7,500 ppm LAE in toothpaste)?
Answer: The Organoleptic result was 2.9.

Question: And the Organoleptic result (panel of 10 persons [4]; product 3,330 ppm + 7,500 ppm LAE in toothpaste)?
Answer: Its Organoleptic result is 2.8.

Question: For `OC[C@@H](O)[C@@H](O[C@@H]1O[C@H](CO)[C@H](O)[C@H](O)[C@H]1O)[C@H](O)[C@@H](O)CO` [Lactitol, lactitol], which “neutralisation of the bitter taste of the cationic surfactant” value (“neutralisation” for short) (consumer) is on record?
Answer: Its value is “does not neutralise the bitter taste”.

Question: And the Organoleptic result (panel of 10 persons [4]; [9])?
Answer: The Organoleptic result was 5.1.

Question: How did the Organoleptic results (panel of 10 persons [1]; [10]) turn out when `CC1(C)[C@@H](O[C@H]2O[C@H](C(=O)O)[C@@H](O)[C@H](O)[C@H]2O[C@@H]2O[C@H](C(=O)O)[C@@H](O)[C@H](O)[C@H]2O)CC[C@]2(C)[C@H]3C(=O)C=C4[C@@H]5C[C@@](C)(C(=O)O)CC[C@]5(C)CC[C@@]4(C)[C@]3(C)CC[C@@H]12` [Glycyrrhizinate, monoammonium glycyrrhizinate] was run?
Answer: Its Organoleptic results is 2.4.

Question: And the Organoleptic results (panel of 10 persons [2]; test compound 250 ppm + 200 ppm LAE in juice drink)?
Answer: The Organoleptic results was 2.3.

Question: What about the Organoleptic results (panel of 10 persons [2]; [8]) of the same molecule?
Answer: Its Organoleptic results is 2.

Question: And the Organoleptic results (panel of 10 persons [2]; [6])?
Answer: Its Organoleptic results is 2.

Question: Which “neutralisation” value (consumer) does the source give for `OC[C@@H](O)[C@@H](O)[C@H](O)[C@H](O)CO` [mannitol] here?
Answer: Its value is “does not neutralise the bitter taste”.

Question: Which Organoleptic results (panel of 10 persons [2]; test compound 5 ppm + 200 ppm LAE in juice drink) does the source give for `OC[C@H]1O[C@H](O[C@]2(CCl)O[C@H](CCl)[C@@H](O)[C@@H]2O)[C@H](O)[C@@H](O)[C@H]1Cl` [Sucralose, sucralose] here?
Answer: The Organoleptic results was 2.7.

Question: How did the Organoleptic results (panel of 10 persons [2]; test compound 1 ppm + 200 ppm LAE in juice drink) turn out when `COc1ccc(CCC(=O)c2c(O)cc(O[C@@H]3O[C@H](CO)[C@@H](O)[C@H](O)[C@H]3O[C@@H]3O[C@@H](C)[C@H](O)[C@@H](O)[C@H]3O)cc2O)cc1O` [NHDC] was run?
Answer: Its Organoleptic results is 2.5.

Question: For `CCCCCCCCCCCC(=O)N[C@@H](CCCN=C(N)N)C(=O)OCC.Cl` [LAE, ethyl ester of the lauramide of the arginine monohydrochloride], which Organoleptic result (panel of 10 persons [4]; Control: 7,500 ppm LAE in toothpaste, no masking agent) is on record?
Answer: Its Organoleptic result is 5.4.

Question: For `N[C@@H](CCC(=O)[O-])C(=O)[O-].[Na+].[Na+]` [sodium glutamate], which Organoleptic results (panel of 10 persons [1]; [10]) is on record?
Answer: The Organoleptic results was 5.4.

Question: And the Organoleptic results (panel of 10 persons [2]; [6])?
Answer: The Organoleptic results was 5.0.

Question: And the Organoleptic results (panel of 10 persons [2]; [11])?
Answer: Its Organoleptic results is 4.8.

Question: Which results are given for `OC[C@@H](O)[C@@H](O)[C@H](O)[C@@H](O)CO` [Sorbitol, sorbitol]?
Answer: neutralisation of the bitter taste of the cationic surfactant (consumer): does not neutralise the bitter taste; Organoleptic result (panel of 10 persons [4]; [9]): 4.9

Question: With `OC[C@H]1O[C@@](CO)(O[C@H]2O[C@H](CO)[C@@H](O)[C@H](O)[C@H]2O)[C@@H](O)[C@@H]1O` [sugar] as the molecule, how does the Organoleptic results (panel of 10 persons [1]; [5]) read?
Answer: Its Organoleptic results is 5.1.

Question: And the Organoleptic results (panel of 10 persons [2]; [7])?
Answer: Its Organoleptic results is 5.0.

Question: And the Organoleptic results (panel of 10 persons [2]; [11])?
Answer: Its Organoleptic results is 4.8.

Question: What about the “neutralisation” value (consumer) of the same molecule?
Answer: The value was “does not neutralise the bitter taste”.

Question: What does the source list for `OC[C@H]1O[C@@H]2O[C@H]3[C@H](O)[C@@H](O)[C@@H](O[C@H]4[C@H](O)[C@@H](O)[C@@H](O[C@H]5[C@H](O)[C@@H](O)[C@@H](O[C@H]6[C@H](O)[C@@H](O)[C@@H](O[C@H]7[C@H](O)[C@@H](O)[C@@H](O[C@H]8[C@H](O)[C@@H](O)[C@@H](O[C@H]1[C@H](O)[C@H]2O)O[C@@H]8CO)O[C@@H]7CO)O[C@@H]6CO)O[C@@H]5CO)O[C@@H]4CO)O[C@@H]3CO` [β-cyclodextrin]?
Answer: Organoleptic results (panel of 10 persons [2]; [6]): 2.1; Organoleptic result (panel of 10 persons [4]; product 2,000 ppm + 7,500 ppm LAE in toothpaste): 2.7
